Measurements taken from article PMC3509768 (Journal of medicinal chemistry, 2012).

Assays:
Type in all cases: biochemical
[1] = molecular target: T1, PfMIF (Plasmodium falciparum, UniProt Q8I5C5); experiment: Michaelis-Menten kinetics of 4-HPP tautomerization by PfMIF
[2] = molecular target: T2, huMIF (Homo sapiens, UniProt P14174); experiment: Michaelis-Menten kinetics of 4-HPP tautomerization by huMIF
T2 sequence (P14174 2-115 limits assumed): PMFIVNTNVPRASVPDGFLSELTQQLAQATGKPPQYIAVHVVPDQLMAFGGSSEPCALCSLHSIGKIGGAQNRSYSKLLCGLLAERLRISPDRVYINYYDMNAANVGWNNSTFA

[3] = molecular target: T1, PfMIF; experiment: biochemical; settings: for PfMIF tautomerase inhibitory activity (active / inactive): result in words

O=C(O)C(=O)Cc1ccc(O)cc1 [Compound 4-HPP, 4-hydroxyphenylpyruvate]
Km ([1]; enolization): 675 ± 46.9 µM
kcat ([1]; enolization): 17.98 ± 0.7 s⁻¹
Km ([1]; ketonization): 187 ± 50.6 µM
kcat ([1]; ketonization): 32.90 ± 5.3 s⁻¹
Km ([2]; enolization): 1140 ± 216 µM
kcat ([2]; enolization): 208.3 ± 19.3 s⁻¹
Km ([2]; ketonization): 192 ± 47 µM
kcat ([2]; ketonization): 86.62 ± 11.7 s⁻¹

Cc1cc(Oc2cccc(O)c2)nc(-c2ccccc2)n1 [Compound 20]
times less potent than 25h ([3]; ratio of PfMIF Ki values): more than 400
PfMIF tautomerase inhibitory activity (active / inactive) [3]: active

COc1cccc(Oc2ccnc(N3CCOCC3)c2)c1 [Compound 23]
PfMIF tautomerase inhibitory activity (active / inactive) [3]: active

Oc1cccc(Oc2ccc(-c3cccc(O)c3)nc2)c1 [Compound 24d]
PfMIF tautomerase inhibitory activity (active / inactive) [3]: active

Oc1ccc(-c2ccc(Oc3cccc(O)c3)cn2)cc1 [Compound 24e]
PfMIF tautomerase inhibitory activity (active / inactive) [3]: active

N#Cc1cccc(Oc2ccc(-c3cccc(O)c3)nc2)c1 [Compound 24j]
times more potent than the 3-hydroxyl analogue 24d ([3]; ratio of PfMIF Ki values): roughly 20

COc1cc(C)cc(Oc2cc(C)nc(N3CCOCC3)c2)c1 [Compound 25f]
Ki [3]: 1000 nM

COc1cccc(Oc2cc(C)nc(N3CCOCC3)c2)c1 [Compound 25h]
Ki [3]: ~40 nM

COc1ccc(-c2cc(Oc3cc(C)cc(OC)c3)cc(C)n2)cc1 [Compound 26k]
Ki [3]: ~40 nM
